How the values were obtained:
[1] = target: T1, Progesteronrezeptor (Oryctolagus cuniculus, UniProt P06186); experiment: Binding to the progesterone receptor (relative binding affinity, tracer 3H-ORG 2058); conditions: Uterus-Cytosol, Kaninchen, geprimt, 0-4°C, 18 h, Referenzsubstanz Progesteron = 100%
T1 construct: Uterus-Cytosol, Kaninchen, geprimt; from tissue; host or cells: uterus cytosol of primed rabbits
T1 sequence (P06186 1-930): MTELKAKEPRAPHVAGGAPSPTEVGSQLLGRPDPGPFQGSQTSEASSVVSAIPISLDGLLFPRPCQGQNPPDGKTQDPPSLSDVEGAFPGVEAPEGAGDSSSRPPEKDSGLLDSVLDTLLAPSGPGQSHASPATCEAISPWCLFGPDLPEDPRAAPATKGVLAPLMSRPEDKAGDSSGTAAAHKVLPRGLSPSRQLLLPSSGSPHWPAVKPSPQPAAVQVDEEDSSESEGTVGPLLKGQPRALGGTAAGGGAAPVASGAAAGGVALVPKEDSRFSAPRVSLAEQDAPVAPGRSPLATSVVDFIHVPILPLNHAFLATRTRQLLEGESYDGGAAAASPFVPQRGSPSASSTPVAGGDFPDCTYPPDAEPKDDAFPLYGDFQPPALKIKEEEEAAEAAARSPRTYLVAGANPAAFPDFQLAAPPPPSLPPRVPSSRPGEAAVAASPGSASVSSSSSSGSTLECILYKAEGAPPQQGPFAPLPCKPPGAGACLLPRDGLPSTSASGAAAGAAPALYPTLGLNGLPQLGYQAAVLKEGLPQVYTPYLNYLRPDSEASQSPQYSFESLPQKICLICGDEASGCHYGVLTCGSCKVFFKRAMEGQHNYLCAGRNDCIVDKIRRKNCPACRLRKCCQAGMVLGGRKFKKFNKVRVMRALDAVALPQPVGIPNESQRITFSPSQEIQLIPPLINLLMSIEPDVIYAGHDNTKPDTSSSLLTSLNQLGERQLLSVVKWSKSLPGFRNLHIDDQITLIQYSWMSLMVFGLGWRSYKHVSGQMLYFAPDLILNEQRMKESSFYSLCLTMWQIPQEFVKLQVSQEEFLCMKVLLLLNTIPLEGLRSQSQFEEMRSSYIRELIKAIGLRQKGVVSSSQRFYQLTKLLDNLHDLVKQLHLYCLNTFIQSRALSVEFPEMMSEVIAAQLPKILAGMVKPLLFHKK
From the text: Bindung der Verbindung I an den Progesteronrezeptor

[2] = target: T2, 5α-Reduktase-Typ2 (Homo sapiens, UniProt P31213); experiment: 5α-reductase type 2 activity in genital skin homogenates; type: biochemical; conditions: Genitalhaut-Homogenate, optimised conditions, pH 5.5
T2 construct: In Genitalhaut-Homogenaten unter optimierten Bedingungen bei pH 5.5; from tissue; host or cells: genital skin homogenate
T2 sequence (P31213 1-254): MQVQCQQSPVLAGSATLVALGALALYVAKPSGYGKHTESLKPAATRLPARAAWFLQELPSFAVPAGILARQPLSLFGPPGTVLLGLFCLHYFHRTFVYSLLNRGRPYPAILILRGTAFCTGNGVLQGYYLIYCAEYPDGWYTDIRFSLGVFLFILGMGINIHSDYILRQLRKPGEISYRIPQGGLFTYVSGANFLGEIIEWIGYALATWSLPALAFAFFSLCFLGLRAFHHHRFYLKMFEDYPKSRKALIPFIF
From the text: Nachfolgend sind beispielhafte Daten zur Progesteronrezeptorbindung, 5α-Reduktase-Typ2-Aktivität in Genitalhaut-Homogenaten und in vivo- Daten am Beispiel von (E)-17α-Fluor-3-oxo-estr-4-en-17β-carbaldehyd oxim aufgeführt

[3] = target: T3, PR-B (Homo sapiens, UniProt P06401); experiment: PR-B antagonism and agonism; type: cell-based
T3 sequence (P06401 1-933): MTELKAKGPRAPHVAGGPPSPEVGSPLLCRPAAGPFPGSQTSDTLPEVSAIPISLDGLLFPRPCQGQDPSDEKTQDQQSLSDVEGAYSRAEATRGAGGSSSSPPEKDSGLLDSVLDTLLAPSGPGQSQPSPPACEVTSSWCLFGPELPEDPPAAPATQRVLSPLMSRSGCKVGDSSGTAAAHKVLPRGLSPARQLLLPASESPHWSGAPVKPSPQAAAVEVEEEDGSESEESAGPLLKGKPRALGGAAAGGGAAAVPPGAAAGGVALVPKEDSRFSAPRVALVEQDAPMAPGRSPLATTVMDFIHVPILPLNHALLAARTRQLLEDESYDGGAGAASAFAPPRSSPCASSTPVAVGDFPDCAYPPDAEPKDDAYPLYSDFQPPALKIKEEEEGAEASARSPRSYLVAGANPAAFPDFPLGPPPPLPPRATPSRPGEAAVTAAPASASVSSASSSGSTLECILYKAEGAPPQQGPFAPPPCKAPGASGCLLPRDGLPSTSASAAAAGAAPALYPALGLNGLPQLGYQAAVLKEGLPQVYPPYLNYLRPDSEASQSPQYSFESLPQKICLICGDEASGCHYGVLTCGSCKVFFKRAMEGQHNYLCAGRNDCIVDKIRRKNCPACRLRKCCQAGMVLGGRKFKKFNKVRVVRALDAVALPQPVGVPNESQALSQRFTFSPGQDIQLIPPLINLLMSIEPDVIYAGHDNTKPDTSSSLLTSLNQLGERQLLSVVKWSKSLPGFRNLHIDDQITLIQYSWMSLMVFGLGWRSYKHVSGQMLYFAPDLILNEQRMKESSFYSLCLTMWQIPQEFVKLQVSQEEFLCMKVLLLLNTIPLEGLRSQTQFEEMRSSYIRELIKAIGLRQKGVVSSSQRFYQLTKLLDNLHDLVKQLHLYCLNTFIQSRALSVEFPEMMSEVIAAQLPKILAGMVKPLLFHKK
From the text: PR-B Antagonismus und Agonismus

[4] = test system: Maus; experiment: Gestagenic activity in the pregnancy maintenance test, mouse; type: in vivo

Structure (SMILES): C[C@]12CC[C@H]3[C@@H](CCC4=CC(=O)CC[C@@H]43)[C@@H]1CC[C@]2(F)/C=N/O [Verbindung 7, (E)-17α-Fluor-3-oxo-estr-4-en-17β-carbaldehyd oxim]
- Relative Bindungsaffinität RBA[%] [1]: 131 ± 9%
- IC50 [2]: 245000 pM
- EC50 ([3]; agonist mode, read-out: Agonismus IC50): 250 pM
- IC50 ([3]; antagonist mode, read-out: Antagonismus IC50): 339 pM
- Rate der erhaltenen Graviditäten ([4]; Dosis 0,03 mg/Tier/Tag): 2/2
- Rate der erhaltenen Graviditäten ([4]; Dosis 0,3 mg/Tier/Tag): 3/3
- Rate der erhaltenen Graviditäten ([4]; Dosis 0,003 mg/Tier/Tag): 0/3
